Test results published in patent publication US7829580B2, “Cyclic amine derivative having heteroaryl ring” (Sankyo Company, Ltd., priority 2006, dated 2010).
Where a name gives a salt, the structure may show the parent alone.

Experiments:
platelet coagulation [1] = assay: Inhibitory activities of test compounds against platelet coagulation in vitro (ADP-induced, rat platelet-rich plasma, aggregometer); format: cell-based; conditions: 10 μg/ml test substance in rat PRP, maximum rate of platelet coagulation over 5 min; for inhibition at 10 µg/mL: 5 min, read-out: Test Example 1 (% inhibition)
Description: Confirmation of Inhibitory Activities of Test Compounds Against Platelet Coagulation In Vitro
Three to four male Sprague-Dawley rats (8 weeks of age, Japan SLC., Inc.) per group were used in the present test. Platelet coagulation was determined by platelet aggregometer (MCM Hema Tracer 313M, MC Medical, Inc.) according to modified methods described by Born et al. (Journal of Physiology, vol. 168, 178 (1963)). Blood (6.3 ml) was collected from abdominal aorta of rats anesthetized with pentobarbital sodium (40 mg/kg) with a microsyringe containing 0.7 ml of sodium citrate at a concentration of 3.8% as anti-coagulant. The obtained blood containing sodium citrate was centrifuged (230×g for 15 min at room temperature) and plate-rich plasma (hereinafter referred to as PRP) fraction was isolated. Furthermore, after PRP was isolated, the blood was further centrifuged (2,000×g for 10 min at room temperature) and platelet-poor plasma (hereinafter referred to as PPP) fraction was isolated. Platelet count in PRP was determined by automated hematology analyzer (KX-21N, SYSMEX CORPORATION) and adjusted as 5×10^8/ml. After PRP (239 μl) was put into each cuvette, the test substance dissolved in dimethyl sulfoxide (DMSO, 1 μl) was added to the PRP solution and assessed by automated hematology analyzer. In the control group, DMSO solution (1 μl) instead of the test substance solution was added to the PRP solution. After warming at 37° C. for 1.5 min, 10 μl of adenosine-5′-diphosphate (ADP) solution (final concentration: […]) was added, and platelet coagulation was induced. Platelet coagulation was determined for 5 min and the maximum rate of plate coagulation determined.

platelet coagulation [2] = assay: Inhibitory activities of test compounds against platelet coagulation ex vivo (oral administration to rats 4 hrs prior to blood collection, ADP-induced, PRP); format: in vivo, rat; conditions: for inhibition at 10 µg/mL: Rattus norvegicus, Platelet, po, 4 h, read-out: Test Example 2 (% inhibition); for Test Example 2 (% inhibition): head prints (10 μg/ml), orally administered to rats 4 hrs prior to blood collection, ADP-induced coagulation in PRP
Description: Three to four male Sprague-Dawley rats (8 weeks of age, Japan SLC., Inc.) per group were used in the present test. […] In the control group, the vehicle was similarly and orally administered at the rate of 1 mL/kg 4 hrs prior to the blood collection. […] The obtained blood containing sodium citrate was centrifuged (230×g for 15 min at room temperature) and PRP fraction was isolated. Furthermore, after PRP was isolated, the blood was further centrifuged (2,000×g for 10 min at room temperature) and PPP fraction was isolated. Platelet count in PRP was determined by automated hematology analyzer (KX-21N, SYSMEX CORPORATION) and adjusted as 5×10^8/ml. After PRP (240 μl) was put into each cuvette, the platelet coagulation was assessed by automated hematology analyzer. After warming at 37° C. for 1.5 min, 10 μl of ADP solution (final concentration: […]) was added, and platelet coagulation was induced. Platelet coagulation was determined for 5 min and the maximum rate of plate coagulation determined.

| SMILES | inhibition at 10 µg/mL (platelet coagulation [1]) | inhibition at 10 µg/mL (platelet coagulation [2]) | Test Example 1 (% inhibition) (platelet coagulation [1]) | Test Example 2 (% inhibition) (platelet coagulation [2]) |
| --- | --- | --- | --- | --- |
| O=C(O)Cn1ccc(/C=C2\CN(C(C(=O)C3CC3)c3ccccc3F)CCC2S)n1 (stereo not drawn) [Example 77, (E)-3-{[1-(Carboxymethyl)-1H-pyrazol-3-yl]methylidene}-1-[2-cyclopropyl-1-(2-fluorophenyl)-2-oxoethyl]-4-sulfanylpiperidine hydrochloride] | 76% | 77% | – | – |
| CCOC(=O)CCn1ccc(/C=C2\CN(C(C(=O)C3CC3)c3ccccc3F)CCC2S)n1 (stereo not drawn) [Example 112, (E)-1-[2-Cyclopropyl-1-(2-fluorophenyl)-2-oxoethyl]-3-({1-[2-(ethoxycarbonyl)ethyl]-1H-pyrazol-3-yl}methylidene)-4-sulfanylpiperidine hydrochloride] | 75% | 91% | – | – |
| CC(=O)SC1CCN(C(C(=O)C2CC2)c2ccccc2F)C/C1=C\c1ccn(CCC(=O)O)n1 (stereo not drawn) [Example 114, (E)-4-(Acetylsulfanyl)-3-{[1-(2-carboxyethyl)-1H-pyrazol-3-yl]methylidene}-1-[2-cyclopropyl-1-(2-fluorophenyl)-2-oxoethyl]piperidine hydrochloride] | – | 81% | – | – |
| O=C(O)CCCn1ccc(/C=C2\CN(C(C(=O)C3CC3)c3ccccc3F)CCC2S)n1 (stereo not drawn) [Example 117, (E)-3-{[1-(3-Carboxypropyl)-1H-pyrazol-3-yl]methylidene}-1-[2-cyclopropyl-1-(2-fluorophenyl)-2-oxoethyl]-4-sulfanylpiperidine hydrochloride] | 70% | 63% | – | – |
| O=C(O)CCCCn1ccc(/C=C2\CN(C(C(=O)C3CC3)c3ccccc3F)CCC2S)n1 (stereo not drawn) [Example 121, (E)-3-{[1-(4-Carboxybutyl)-1H-pyrazol-3-yl]methylidene}-1-[2-cyclopropyl-1-(2-fluorophenyl)-2-oxoethyl]-4-sulfanylpiperidine hydrochloride] | 55% | 72% | – | – |
| O=C(O)CCn1nncc1/C=C1\CN(C(C(=O)C2CC2)c2ccccc2F)CCC1S (stereo not drawn) [Example 134, (E)-3-{[1-(2-Carboxyethyl)-1H-1,2,3-triazol-5-yl]methylidene}-1-[2-cyclopropyl-1-(2-fluorophenyl)-2-oxoethyl]-4-sulfanylpiperidine hydrochloride] | 85% | – | – | – |
| O=C(O)CCCn1cc(/C=C2\CN(C(C(=O)C3CC3)c3ccccc3F)CCC2S)nn1 (stereo not drawn) [Example 143, (E)-3-{[1-(3-Carboxypropyl)-1H-1,2,3-triazol-4-yl]methylidene}-1-[2-cyclopropyl-1-(2-fluorophenyl)-2-oxoethyl]-4-sulfanylpiperidine hydrochloride] | 81% | 69% | – | – |
| CCOC(=O)Cn1ccc(/C=C2/CN(C(C(=O)C3CC3)c3ccccc3F)CCC2S)n1 (stereo not drawn) [Example 154, (Z)-1-[2-Cyclopropyl-1-(2-fluorophenyl)-2-oxoethyl]-3-{[1-(ethoxycarbonylmethyl)-1H-pyrazol-3-yl]methylidene}-4-sulfanylpiperidine hydrochloride] | – | 79% | – | – |
| CONC(=O)Cn1ccc(/C=C2\CN(C(C(=O)C3CC3)c3ccccc3F)CCC2S)n1.Cl (stereo not drawn) [Example 192, (E)-1-[2-Cyclopropyl-1-(2-fluorophenyl)-2-oxoethyl]-3-{[1-(N-methoxycarbamoylmethyl)-1H-pyrazol-3-yl]methylidene}-4-sulfanylpiperidine hydrochloride] | – | – | 84% | 81% |
| Cl.O=C(C1CC1)C(c1ccccc1F)N1CCC(S)/C(=C/c2c[nH]nn2)C1 (stereo not drawn) [Example 235, (E)-1-[2-Cyclopropyl-1-(2-fluorophenyl)-2-oxoethyl]-4-sulfanyl-3-{[1(2)H-1,2,3-triazol-4(5)-yl]methylidene}piperidine hydrochloride] | – | – | 77% | 54% |
| O=C(O)CCn1ncc(/C=C2\CN(C(C(=O)C3CC3)c3ccccc3F)CCC2S)n1 (stereo not drawn) [Example 242, (E)-3-{[2-(Carboxyethyl)-2H-1,2,3-triazol-4-yl]methylidene}-1-[2-cyclopropyl-1-(2-fluorophenyl)-2-oxoethyl]-4-sulfanylpiperidine hydrochloride] | 75% | 82% | – | – |
| Cl.O=C(O)CCn1cc(/C=C2\CN(C(C(=O)C3CC3)c3ccccc3F)CCC2S)cn1 (stereo not drawn) [Example 249, (E)-3-{[2-(Carboxyethyl)-1H-pyrazol-4-yl]methylidene}-1-[2-cyclopropyl-1-(2-fluorophenyl)-2-oxoethyl]-4-sulfanylpiperidine hydrochloride] | – | – | 81% | 88% |
| O=C(O)CCn1nnc(/C=C2\CN(C(C(=O)C3CC3)c3ccccc3F)CCC2S)n1 (stereo not drawn) [Example 257, (E)-3-{[2-(2-Carboxyethyl)-2H-tetrazol-5-yl]methylidene}-1-[2-cyclopropyl-1-(2-fluorophenyl)-2-oxoethyl]-4-sulfanylpiperidine hydrochloride] | 87% | 51% | – | – |
| O=C(O)CCn1nnnc1/C=C1\CN(C(C(=O)C2CC2)c2ccccc2F)CCC1S (stereo not drawn) [Example 258, (E)-3-{[1-(2-Carboxyethyl)-1H-tetrazol-5-yl]methylidene}-1-[2-cyclopropyl-1-(2-fluorophenyl)-2-oxoethyl]-4-sulfanylpiperidine hydrochloride] | 85% | 76% | – | – |
| O=C(CCCn1nncc1/C=C1\CN(C(C(=O)C2CC2)c2ccccc2F)CCC1S)NO (stereo not drawn) [Example 262, (E)-1-[2-Cyclopropyl-1-(2-fluorophenyl)-2-oxoethyl]-3-({1-[3-(N-hydroxycarbamoyl)propyl]-1H-1,2,3-triazol-5-yl}methylidene)-4-sulfanylpiperidine hydrochloride] | 71% | 91% | – | – |
